Each structure is given as a SMILES string. Some results are limits rather than exact numbers.

Assay [1] is described as follows: microbe, parasite or virus in culture. The settings on record: Mycobacterium tuberculosis, 72 h, read-out: pIC50 (converted).
Assay [2] can be described thus: microbe, parasite or virus in culture. As to conditions: Mycobacterium tuberculosis, 96 h, read-out: pIC50 (converted).

Consider `CS(=O)(=O)Nc1cccc(C(=O)Nc2ccccc2)c1`, for which the IC50 in assay [1] was 130 µM; in assay [2], 267 µM.

Take `CCCn1nnnc1NCc1ccc(F)cc1`: the IC50 is 37.8 µM in assay [1] and 19.8 µM in assay [2].

With `COc1ccc(OCCSc2n[nH]c(N)n2)cc1`, the IC50 was 199 µM in assay [1] and 220 µM in assay [2].

Consider `O=C(NCc1cccnc1)C1COc2ccccc2O1` (stereo not given), for which the IC50 in assay [1] and in assay [2] was more than 501 µM throughout.

`Cc1occc1C(=O)NCC(CO)Cc1cccs1` (stereo not given): the IC50 in assay [1] and in assay [2] was more than 501 µM in each case.

Regarding `COCCC1CN(C(=O)c2ccc(C)c(F)c2)CCO1` (stereo not given), the IC50 in assay [1] was 257 µM; in assay [2] it was 234 µM.

Take `Cc1ccc(F)c(S(=O)(=O)N2C[C@H](C3CC3)[C@@H](N)C2)c1`: the IC50 in assay [1] and in assay [2] was more than 501 µM each time.

On to `Cn1nnnc1SCCNCc1ccc(Br)cc1`, for which the IC50 was 280 µM in assay [1] and 289 µM in assay [2].

As for `CCN1CCN(Cc2nc(-c3ccccc3)no2)CC1`, the IC50 in assay [1] and in assay [2] was more than 501 µM throughout.

Take `Cc1nc(CN(C)C(=O)c2nc(C(C)C)cs2)no1`: the IC50 in assay [1] is 71.2 µM; in assay [2] it was 5.83 µM.

`CC(C)c1cc(C(=O)N(C)C(C)c2ccon2)on1` (stereo not given): the IC50 is more than 501 µM in assay [1] and 437 µM in assay [2].

With `CCC1(CO)CCCN(C(=O)c2ccc(COC)s2)C1` (stereo not given), the IC50 in assay [1] was 148 µM; in assay [2] it was 246 µM.

Take `Cc1ccc(-c2noc(CNS(C)(=O)=O)n2)cc1`: the IC50 is 248 µM in assay [1] and more than 501 µM in assay [2].

Regarding `Cc1ccoc1C(=O)N(C)Cc1nc(C(C)C)no1`, the figures for the IC50 in assay [1] and in assay [2] were more than 501 µM and 179 µM, respectively.

With `CCOC(=O)Cn1nnc2ccccc2c1=O`, the IC50 in assay [1] and in assay [2] was more than 501 µM in each case.

On to `CCCc1cc(C(=O)NCC2COCCO2)cs1` (stereo not given), for which the IC50 in assay [1] is more than 501 µM; in assay [2], 124 µM.

Turning to `CCCOCCNC(=O)c1cc(C(F)(F)F)n[nH]1`, the IC50 is 54.8 µM in assay [1] and 43.8 µM in assay [2].

With `Clc1ccc(N2CCN(Cc3ncc[nH]3)CC2)nc1`, the results for the IC50 in assay [1] and in assay [2] were 311 µM and more than 501 µM, respectively.

Consider `COCCOc1ccc(C(=O)NCc2ccco2)cc1`, for which the values for the IC50 in assay [1] and in assay [2] were 109 µM and 61.7 µM, respectively.

As to `O=C(Nc1nnc(-c2cccs2)s1)NC1CCCNC1` (stereo not given), the IC50 in assay [1] was 127 µM; in assay [2], more than 501 µM.

For `NS(=O)(=O)c1cccc(S(=O)(=O)c2ccc(Cl)cc2)c1`, the results for the IC50 in assay [1] and in assay [2] were 71.4 µM and 283 µM, respectively.

As for `CCCc1nc(C(=O)NCCc2cccnc2)cs1`, the values for the IC50 in assay [1] and in assay [2] were 277 µM and 281 µM, respectively.

`N[C@@H]1CC[C@@H](NC(=O)c2cc3sccc3[nH]2)C1`: the IC50 is 167 µM in assay [1] and more than 501 µM in assay [2].

Take `CCCc1nnc(NC2CCN(C(=O)OCC)CC2)o1`: the IC50 in assay [1] is 180 µM; in assay [2], 72 µM.

On to `C=C(C)c1nc(C#N)c(NCc2ccco2)o1`, for which the IC50 in assay [1] is 142 µM; in assay [2], 170 µM.

For `NCC(=O)Nc1ccc(Cl)c(F)c1`, the IC50 is 212 µM in assay [1] and 120 µM in assay [2].

Turning to `CCc1ccc(CN2CC(N3CCOCC3)C2)o1`, the IC50 in assay [1] is 129 µM; in assay [2], 188 µM.

Regarding `CNc1cc(C(=O)NCC(OC)c2cccs2)ccn1` (stereo not given), the IC50 in assay [1] is 22.9 µM; in assay [2], more than 501 µM.

`CCOC(=O)N1CCN(C(=O)Cc2cccs2)CC1`: the IC50 in assay [1] was 371 µM; in assay [2], more than 501 µM.

In the case of `CSCCC(=O)NC(C)c1ccc2c(c1)OCCCO2` (stereo not given), the IC50 in assay [1] and in assay [2] was more than 501 µM each time.

On to `Cc1c(C(=O)NC[C@H]2CCCN2)n(C)c2ccccc12`, for which the IC50 in assay [1] and in assay [2] was more than 501 µM each time.

With `CC(C)Oc1ccc(CN)cc1`, the IC50 was 284 µM in assay [1] and more than 501 µM in assay [2].

On to `Cc1ncsc1CCCNC(=O)c1cnccn1`, for which the IC50 in assay [1] and in assay [2] was more than 501 µM in each case.

In the case of `Cn1nc(C(F)(F)F)c(Cl)c1C(=O)N[C@@H]1CCNC1`, the IC50 in assay [1] was 168 µM; in assay [2] it was more than 501 µM.

For the compound `CCCc1nc(C(=O)N2CC(c3ccncc3)C2)cs1`, the IC50 in assay [1] was 326 µM; in assay [2], 356 µM.

Regarding `COc1ccc2[nH]c(C(=O)NCC3CCCO3)cc2c1` (stereo not given), the IC50 in assay [1] was 156 µM; in assay [2] it was 220 µM.

With `NCc1cc(N[C@H](CO)CC2CCCCC2)ncn1`, the IC50 in assay [1] was 296 µM; in assay [2], more than 501 µM.

Turning to `Cc1nc(CCN)cc(NC2CCC2)n1`, the IC50 in assay [1] is 145 µM; in assay [2], more than 501 µM.

Take `N[C@@H](CO)C(=O)N1CCC(Cc2ccc(F)cc2)CC1`: the results for the IC50 in assay [1] and in assay [2] were 195 µM and more than 501 µM, respectively.

Turning to `CCO[C@H]1CN(c2nc(-c3ccccc3)no2)C[C@@H]1O`, the figures for the IC50 in assay [1] and in assay [2] were 262 µM and more than 501 µM, respectively.

For `NCC(=O)N1CCCC(CCc2c(F)cccc2F)C1` (stereo not given), the IC50 in assay [1] is 238 µM; in assay [2], 258 µM.

In the case of `CN1CCCCC1CC(=O)NCc1ccc(C#N)cc1` (stereo not given), the IC50 in assay [1] and in assay [2] was more than 501 µM in each case.

Take `O=C(NCCSc1ccccn1)C1CCCCO1` (stereo not given): the IC50 was 476 µM in assay [1] and more than 501 µM in assay [2].

Take `CCNCc1nc(-c2ccccc2)no1`: the IC50 in assay [1] and in assay [2] was more than 501 µM throughout.

As for `CC(C)Cc1noc(-c2ccc(N(C)CCO)nc2)n1`, the IC50 was 239 µM in assay [1] and 397 µM in assay [2].

On to `CCc1nc(C#N)c(NCc2ccc3c(c2)OCO3)o1`, for which the IC50 in assay [1] was 105 µM; in assay [2] it was 205 µM.

Take `O=C(NCC1COCCO1)c1cnc2ccccc2c1` (stereo not given): the IC50 in assay [1] and in assay [2] was more than 501 µM throughout.

In the case of `Cc1cc(Cl)ccc1NC(=O)CN1CCN(C)CC1`, the IC50 in assay [1] and in assay [2] was more than 501 µM each time.

For `Clc1ccc2c(c1)CNCCO2`, the results for the IC50 in assay [1] and in assay [2] were 33.4 µM and 67.8 µM, respectively.

For the compound `C=C(C)COc1c(Cl)cc(C(N)=O)cc1OC`, the IC50 in assay [1] is 223 µM; in assay [2], 295 µM.

As to `COCCN(Cc1ccsc1)C(=O)CC1CCNC1` (stereo not given), the IC50 in assay [1] is 187 µM; in assay [2] it was 80.1 µM.

`OCCNCCNCc1ccc(-c2ccccc2F)o1`: the values for the IC50 in assay [1] and in assay [2] were 211 µM and 40.9 µM, respectively.

As for `COc1c(C)cc(Br)cc1C(=O)Nc1nnn(C)n1`, the IC50 in assay [1] was 206 µM; in assay [2], 209 µM.

With `Cc1ccc(CCNC(=O)CSCCN2CCCC2)o1`, the IC50 in assay [1] was 306 µM; in assay [2], more than 501 µM.

Turning to `CC(C)CC(O)C(=O)N1CCN(c2cccnc2)CC1` (stereo not given), the IC50 in assay [1] is 118 µM; in assay [2], more than 501 µM.

Regarding `O=C(NCCSC(F)(F)F)Nc1cccc2[nH]nnc12`, the values for the IC50 in assay [1] and in assay [2] were 286 µM and 265 µM, respectively.

In the case of `C=C(C)COc1ccc(C(=O)NCC[C@@H](C)CO)cc1`, the results for the IC50 in assay [1] and in assay [2] were 440 µM and 283 µM, respectively.

Turning to `Cc1cc(C)c(CN2CCOC(CN)C2)cc1C` (stereo not given), the IC50 in assay [1] was 183 µM; in assay [2] it was 259 µM.

In the case of `OC(CN1CCOC2(CCCC2)C1)c1ccccc1` (stereo not given), the IC50 in assay [1] was 379 µM; in assay [2], 172 µM.

With `CSCCC(=O)N(C)Cc1cccc(-n2cccn2)c1`, the figures for the IC50 in assay [1] and in assay [2] were 269 µM and 286 µM, respectively.
